Measured values: ChEMBL document CHEMBL5696439 (Cancer Res, 2010)
Calls of active or inactive are those of the source. The calls are words filed in the database; no cut-off is given here.

Columns and labels:
[1] = system: Tyrosine-protein kinase ABL1 (Homo sapiens), P00519 [Y253F]; assay: Inhibition of recombinant human full-length His-tagged ABL1 Y253F mutant expressed in insect cells at 2 uM using Tyr 02 as substrate measured after 1 hr by Z'-LYTE assay relative to control; settings: Insect cell
[2] = target: Calcium/calmodulin-dependent protein kinase type II subunit beta (Homo sapiens) (UniProt Q13554); assay: Inhibition of recombinant human full-length His-tagged CAMK2B expressed in insect cells at 2 uM using Ser/Thr 17 as substrate measured after 1 hr by Z'-LYTE assay relative to control; settings: Insect cell
[3] = target: Casein kinase I isoform alpha (Homo sapiens) (UniProt P48729); assay: Inhibition of recombinant human full-length GST-tagged CSNK1A1 at 2 uM using Ser/Thr 11 as substrate measured after 1 hr by Z'-LYTE assay relative to control
[4] = target: Casein kinase II subunit alpha' (Homo sapiens) (UniProt P19784); assay: Inhibition of recombinant human full-length GST-tagged CSNK2A2 expressed in insect cells at 2 uM using Ser/Thr 11 as substrate measured after 1 hr by Z'-LYTE assay relative to control; settings: Insect cell
[5] = system: Proto-oncogene tyrosine-protein kinase receptor Ret (Homo sapiens), P07949 [Y791F]; assay: Inhibition of recombinant human GST-tagged RET Y791F mutant (658-1114 residues) expressed in baculovirus expression system at 2 uM using Tyr 02 as substrate measured after 1 hr by Z'-LYTE assay relative to control
[6] = target: Tyrosine-protein kinase Lck (Homo sapiens) (UniProt P06239); assay: Inhibition of recombinant human full-length His-tagged LCK expressed in insect cells at 2 uM using Tyr 02 as substrate measured after 1 hr by Z'-LYTE assay relative to control; settings: Insect cell
MDA-MB-361 [7] = assay: Antitumor activity against human MDA-MB-361 cells xenografted in female nude mouse model assessed as tumor growth delay at po qd administered as 5 days on/2 days off regimen for 4 cycles; type: functional, organism-based; settings: dose 5-20 mg/kg, time 28.0 day
[8] = target: Protein kinase C beta type (Homo sapiens) (UniProt P05771); assay: Inhibition of recombinant human full length GST-tagged PRKCB2 expressed in insect cells at 2 uM using Ser/Thr 07 as substrate measured after 1 hr by Z'-LYTE assay relative to control; settings: Insect cell
BT-474 = assay: Induction of apoptosis in human BT-474 cells assessed as increase in PARP cleavage at 0.3 to 3 micromol/L incubated for 48 hrs by Western blot analysis; type: functional, cell-based; settings: dose 0.3-3 µmol/L
HEK293 = assay: Antiproliferative activity against HEK293 cells assessed as reduction in polysomes at 0.5 micromol/L incubated for 16 hrs; type: functional, Homo sapiens; settings: dose 0.5 µmol/L
[9] = target: Serine/threonine-protein kinase DCLK2 (Homo sapiens) (UniProt Q8N568); assay: Inhibition of recombinant human full-length GST-tagged DCAMKL2 expressed in baculovirus expression system at 2 uM using Ser/Thr 17 as substrate measured after 1 hr by Z'-LYTE assay relative to control
PC3MM2 = assay: Antitumor activity against human PC3MM2 cells xenografted in female nude mouse model assessed as suppression in P-AKT at S473 level at 50 mg/kg, iv administered once a week and measured at least 8 hrs by immunoblot analysis; type: functional, organism-based
A498 = assay: Antiproliferative activity against human A498 cells assessed as cell growth inhibition incubated for 24 hrs by MTS assay; type: functional, cell-based; settings: A498, 24 h
MDA-MB-361 [10] = assay: Antitumor activity against human MDA-MB-361 cells xenografted in female nude mouse model assessed as P-AKT at T308 level at 6 to 12 mg/kg, po qd administered as 5 days on/2 days off regimen for 4 cycles by immunoblot analysis; type: functional, organism-based; settings: dose 6-12 mg/kg, time 28.0 day
[11] = target: Serine/threonine-protein kinase ATR (Homo sapiens, UniProt Q13535); assay: Inhibition of ATR (unknown origin) using glutathione S-transferase-p53 as substrate by DELFIA
[12] = target: BDNF/NT-3 growth factors receptor (Homo sapiens) (UniProt Q16620); assay: Inhibition of recombinant human His-tagged NTRK2 (526-838 residues) expressed in insect cells at 2 uM using Tyr 01 as substrate measured after 1 hr by Z'-LYTE assay relative to control; settings: Insect cell
[13] = target: Ephrin type-B receptor 1 (Homo sapiens) (UniProt P54762); assay: Inhibition of recombinant human GST-tagged EPHB1 (613-881 residues) expressed in insect cells at 2 uM using Tyr 02 as substrate measured after 1 hr by Z'-LYTE assay relative to control; settings: Insect cell
[14] = target: Serine/threonine-protein kinase D1 (Homo sapiens) (UniProt Q15139); assay: Inhibition of recombinant human full length GST-tagged PRKD1 expressed in insect cells at 2 uM using Ser/Thr 17 as substrate measured after 1 hr by Z'-LYTE assay relative to control; settings: Insect cell
mTORC2 (Homo sapiens) = mTORC2 (Homo sapiens) (UniProt P42345+Q6R327+Q9BVC4+Q9BPZ7); settings: PC3MM2, dose 0.1-1 µM, time 6.0 hrs
[15] = target: Serine/threonine-protein kinase PAK 2 (Homo sapiens) (UniProt Q13177); assay: Inhibition of recombinant human full length GST-tagged PAK2 expressed in insect cells at 2 uM using Ser/Thr 20 as substrate measured after 1 hr by Z'-LYTE assay relative to control; settings: Insect cell
[16] = target: Tyrosine-protein kinase Lyn (Homo sapiens) (UniProt P07948); assay: Inhibition of recombinant human full length His-tagged LYN B expressed in baculovirus expression system at 2 uM using Tyr 02 as substrate measured after 1 hr by Z'-LYTE assay relative to control
[17] = target: Mitogen-activated protein kinase 10 (Homo sapiens) (UniProt P53779); assay: Inhibition of recombinant human full length GST-tagged MAPK10 expressed in insect cells at 2 uM using Ser/Thr 04 as substrate measured after 1 hr by Z'-LYTE assay relative to control; settings: Insect cell
[18] = target: Testis-specific serine/threonine-protein kinase 1 (Homo sapiens) (UniProt Q9BXA7); assay: Inhibition of recombinant human full length His-tagged STK22D expressed in insect cells at 2 uM using Ser/Thr 04 as substrate measured after 1 hr by Z'-LYTE assay relative to control; settings: Insect cell
[19] = target: Tyrosine-protein kinase Fer (Homo sapiens) (UniProt P16591); assay: Inhibition of recombinant human His-tagged FER (541-822 residues) expressed in baculovirus expression system at 2 uM using Tyr 05 as substrate measured after 1 hr by Z'-LYTE assay relative to control
[20] = target: Tyrosine-protein kinase ABL2 (Homo sapiens) (UniProt P42684); assay: Inhibition of recombinant human full-length His-tagged ABL2 expressed in insect cells at 2 uM using Tyr 02 as substrate measured after 1 hr by Z'-LYTE assay relative to control; settings: Insect cell

Sequence of Casein kinase II subunit alpha' (Homo sapiens) (P19784 whole entry, looked up, the tested form may be a part): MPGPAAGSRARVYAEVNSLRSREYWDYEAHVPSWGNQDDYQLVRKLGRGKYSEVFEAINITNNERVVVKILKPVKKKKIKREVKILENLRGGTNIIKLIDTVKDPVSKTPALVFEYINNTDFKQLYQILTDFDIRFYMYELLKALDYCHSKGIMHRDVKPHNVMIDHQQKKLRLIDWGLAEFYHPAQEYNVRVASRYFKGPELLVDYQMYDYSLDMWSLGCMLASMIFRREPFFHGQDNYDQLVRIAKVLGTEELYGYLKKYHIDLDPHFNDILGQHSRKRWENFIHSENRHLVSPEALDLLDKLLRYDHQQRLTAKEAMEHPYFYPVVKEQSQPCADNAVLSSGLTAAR
Sequence of Testis-specific serine/threonine-protein kinase 1 (Homo sapiens) (Q9BXA7 whole entry, the tested form may be a part): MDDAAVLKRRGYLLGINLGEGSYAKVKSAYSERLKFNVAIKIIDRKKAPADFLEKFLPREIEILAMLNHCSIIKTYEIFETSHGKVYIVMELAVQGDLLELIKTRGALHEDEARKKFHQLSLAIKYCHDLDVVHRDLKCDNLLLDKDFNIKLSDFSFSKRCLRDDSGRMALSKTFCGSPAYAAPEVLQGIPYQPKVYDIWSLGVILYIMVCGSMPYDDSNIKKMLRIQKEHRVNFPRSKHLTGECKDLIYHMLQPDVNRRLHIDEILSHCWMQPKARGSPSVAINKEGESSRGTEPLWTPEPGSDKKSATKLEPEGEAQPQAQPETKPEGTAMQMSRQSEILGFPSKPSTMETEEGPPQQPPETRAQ
Sequence of Serine/threonine-protein kinase PAK 2 (Homo sapiens) (Q13177 whole entry): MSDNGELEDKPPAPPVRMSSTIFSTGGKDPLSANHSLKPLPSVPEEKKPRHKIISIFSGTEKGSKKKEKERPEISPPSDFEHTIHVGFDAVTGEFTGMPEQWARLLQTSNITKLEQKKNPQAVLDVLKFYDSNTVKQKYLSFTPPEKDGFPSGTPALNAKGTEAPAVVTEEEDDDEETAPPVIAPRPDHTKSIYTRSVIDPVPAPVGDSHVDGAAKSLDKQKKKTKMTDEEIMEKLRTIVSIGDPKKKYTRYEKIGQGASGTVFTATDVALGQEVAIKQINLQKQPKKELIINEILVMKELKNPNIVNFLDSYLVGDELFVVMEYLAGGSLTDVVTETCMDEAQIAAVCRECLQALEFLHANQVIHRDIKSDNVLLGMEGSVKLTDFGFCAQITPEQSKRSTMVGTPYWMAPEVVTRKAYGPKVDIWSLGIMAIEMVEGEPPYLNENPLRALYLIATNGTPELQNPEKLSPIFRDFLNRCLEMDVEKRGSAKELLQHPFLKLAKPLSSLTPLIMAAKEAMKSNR
Sequence of Calcium/calmodulin-dependent protein kinase type II subunit beta (Homo sapiens) (Q13554 whole entry, canonical isoform): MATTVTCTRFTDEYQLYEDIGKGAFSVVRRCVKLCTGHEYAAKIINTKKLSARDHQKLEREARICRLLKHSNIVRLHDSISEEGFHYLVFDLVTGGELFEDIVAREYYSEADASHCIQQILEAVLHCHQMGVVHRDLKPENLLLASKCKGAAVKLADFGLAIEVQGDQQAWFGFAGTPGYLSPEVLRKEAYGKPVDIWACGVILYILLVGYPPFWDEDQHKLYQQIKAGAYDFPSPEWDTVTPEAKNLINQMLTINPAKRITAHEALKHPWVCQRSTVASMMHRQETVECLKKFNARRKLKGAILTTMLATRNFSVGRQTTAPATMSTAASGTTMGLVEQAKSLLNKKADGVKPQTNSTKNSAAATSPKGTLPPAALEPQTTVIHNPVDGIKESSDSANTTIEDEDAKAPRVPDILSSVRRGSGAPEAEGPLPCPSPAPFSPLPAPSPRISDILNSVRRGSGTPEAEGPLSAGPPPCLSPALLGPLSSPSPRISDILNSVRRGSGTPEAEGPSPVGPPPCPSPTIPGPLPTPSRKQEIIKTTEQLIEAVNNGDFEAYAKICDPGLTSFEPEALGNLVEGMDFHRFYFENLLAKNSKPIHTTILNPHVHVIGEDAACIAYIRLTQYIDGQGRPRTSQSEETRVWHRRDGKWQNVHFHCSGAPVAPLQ
Sequence of Serine/threonine-protein kinase D1 (Homo sapiens) (Q15139 whole entry): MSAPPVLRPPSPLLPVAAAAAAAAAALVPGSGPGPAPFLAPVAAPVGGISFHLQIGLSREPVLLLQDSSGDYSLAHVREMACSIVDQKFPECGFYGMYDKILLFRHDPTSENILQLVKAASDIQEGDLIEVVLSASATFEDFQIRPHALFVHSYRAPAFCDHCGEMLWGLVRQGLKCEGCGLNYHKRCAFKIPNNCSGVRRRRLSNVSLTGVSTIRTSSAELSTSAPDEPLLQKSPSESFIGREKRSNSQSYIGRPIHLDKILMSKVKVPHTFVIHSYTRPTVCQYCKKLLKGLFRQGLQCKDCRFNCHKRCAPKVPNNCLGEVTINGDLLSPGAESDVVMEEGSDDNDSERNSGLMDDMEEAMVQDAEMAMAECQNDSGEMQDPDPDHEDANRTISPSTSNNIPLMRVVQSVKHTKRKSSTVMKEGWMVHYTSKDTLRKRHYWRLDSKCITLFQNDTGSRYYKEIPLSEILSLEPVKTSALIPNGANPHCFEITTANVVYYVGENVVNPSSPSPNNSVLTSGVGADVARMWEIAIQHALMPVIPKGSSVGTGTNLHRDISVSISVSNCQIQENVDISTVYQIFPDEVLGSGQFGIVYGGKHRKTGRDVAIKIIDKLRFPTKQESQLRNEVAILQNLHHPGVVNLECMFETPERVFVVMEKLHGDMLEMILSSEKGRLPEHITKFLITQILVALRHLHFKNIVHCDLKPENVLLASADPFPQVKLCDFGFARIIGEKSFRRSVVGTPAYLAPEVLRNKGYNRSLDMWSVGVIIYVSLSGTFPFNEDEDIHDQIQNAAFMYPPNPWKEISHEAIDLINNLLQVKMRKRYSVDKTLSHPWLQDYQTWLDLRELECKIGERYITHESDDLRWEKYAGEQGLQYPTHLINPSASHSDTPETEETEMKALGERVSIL
Sequence of Ephrin type-B receptor 1 (Homo sapiens) (P54762 whole entry, the tested form may be a part): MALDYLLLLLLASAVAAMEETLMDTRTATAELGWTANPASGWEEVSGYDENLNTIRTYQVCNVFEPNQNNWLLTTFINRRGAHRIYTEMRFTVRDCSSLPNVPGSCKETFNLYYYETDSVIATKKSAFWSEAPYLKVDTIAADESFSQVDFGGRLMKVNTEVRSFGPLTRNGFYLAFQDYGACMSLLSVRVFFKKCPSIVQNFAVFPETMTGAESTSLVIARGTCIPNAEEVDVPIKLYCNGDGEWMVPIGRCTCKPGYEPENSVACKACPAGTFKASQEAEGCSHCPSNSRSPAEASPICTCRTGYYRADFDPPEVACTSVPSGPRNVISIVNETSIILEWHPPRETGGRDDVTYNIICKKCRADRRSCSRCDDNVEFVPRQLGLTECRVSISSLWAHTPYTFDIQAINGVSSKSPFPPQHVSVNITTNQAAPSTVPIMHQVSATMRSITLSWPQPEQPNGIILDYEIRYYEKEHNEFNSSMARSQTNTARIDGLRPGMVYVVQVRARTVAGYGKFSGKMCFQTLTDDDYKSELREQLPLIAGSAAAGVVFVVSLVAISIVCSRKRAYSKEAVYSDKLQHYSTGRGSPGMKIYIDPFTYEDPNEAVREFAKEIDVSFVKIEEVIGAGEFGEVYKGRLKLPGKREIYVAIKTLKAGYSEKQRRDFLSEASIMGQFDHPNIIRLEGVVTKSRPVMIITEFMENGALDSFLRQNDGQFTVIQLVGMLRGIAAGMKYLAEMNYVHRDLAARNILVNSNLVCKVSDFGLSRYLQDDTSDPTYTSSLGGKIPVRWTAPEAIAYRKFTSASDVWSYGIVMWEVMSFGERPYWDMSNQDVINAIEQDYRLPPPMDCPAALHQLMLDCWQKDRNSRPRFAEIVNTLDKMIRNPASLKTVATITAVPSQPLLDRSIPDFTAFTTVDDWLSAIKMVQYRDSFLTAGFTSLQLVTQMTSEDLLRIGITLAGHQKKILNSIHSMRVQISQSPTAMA
Sequence of Proto-oncogene tyrosine-protein kinase receptor Ret (Homo sapiens), P07949 [Y791F] (P07949 whole entry Y791F, the tested form may be a part): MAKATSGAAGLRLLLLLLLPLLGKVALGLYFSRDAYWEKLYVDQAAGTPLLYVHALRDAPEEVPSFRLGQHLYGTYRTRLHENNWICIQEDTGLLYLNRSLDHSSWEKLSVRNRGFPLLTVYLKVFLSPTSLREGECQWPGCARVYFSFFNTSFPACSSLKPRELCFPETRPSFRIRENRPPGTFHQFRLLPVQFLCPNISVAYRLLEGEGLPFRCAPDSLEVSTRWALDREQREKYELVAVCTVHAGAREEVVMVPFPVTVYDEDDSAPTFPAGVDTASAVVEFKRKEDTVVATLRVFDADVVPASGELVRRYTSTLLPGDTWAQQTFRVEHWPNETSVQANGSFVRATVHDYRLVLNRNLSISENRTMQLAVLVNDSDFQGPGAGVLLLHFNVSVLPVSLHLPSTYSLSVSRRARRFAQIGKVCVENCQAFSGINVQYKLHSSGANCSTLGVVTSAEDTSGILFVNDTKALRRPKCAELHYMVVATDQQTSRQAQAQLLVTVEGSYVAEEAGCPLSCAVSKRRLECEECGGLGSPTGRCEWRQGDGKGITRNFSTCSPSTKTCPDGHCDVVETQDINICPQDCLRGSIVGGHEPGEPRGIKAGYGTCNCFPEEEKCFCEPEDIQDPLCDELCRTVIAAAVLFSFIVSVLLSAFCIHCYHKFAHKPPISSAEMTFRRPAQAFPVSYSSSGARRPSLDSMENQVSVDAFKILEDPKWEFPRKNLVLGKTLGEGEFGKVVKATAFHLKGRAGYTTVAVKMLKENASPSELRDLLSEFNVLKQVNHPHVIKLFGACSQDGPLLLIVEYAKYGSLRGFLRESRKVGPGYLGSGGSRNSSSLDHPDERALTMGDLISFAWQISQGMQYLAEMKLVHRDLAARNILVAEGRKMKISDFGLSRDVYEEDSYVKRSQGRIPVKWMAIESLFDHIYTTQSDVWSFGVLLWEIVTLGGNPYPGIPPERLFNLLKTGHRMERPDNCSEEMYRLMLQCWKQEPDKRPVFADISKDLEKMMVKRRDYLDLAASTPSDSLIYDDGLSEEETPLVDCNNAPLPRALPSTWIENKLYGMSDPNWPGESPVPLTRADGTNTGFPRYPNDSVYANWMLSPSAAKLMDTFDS

CNC(=O)Nc1ccc(-c2nc(N3CC4CCC(C3)O4)c3cnn(C4CCC5(CC4)OCCO5)c3n2)cc1
inhibition [1]: 0%
inhibition [2]: 8%
inhibition [3]: 2%
inhibition [4]: 3%
inhibition [5]: 2%
inhibition [6]: 10%
Activity (MDA-MB-361 [7]): Dose-Dependent Effect
inhibition [8]: 9%
Activity (BT-474): Active
Activity (HEK293): 0.58
inhibition [9]: 2%
Activity (PC3MM2): Active
IC50 (A498): 110 nM
Activity (MDA-MB-361 [10]): inactive
IC50 [11]: > 10000 nM
inhibition [12]: 1%
inhibition [13]: 2%
inhibition [14]: 0%
inhibition (mTORC2 (Homo sapiens)): inactive
inhibition [15]: 15%
inhibition [16]: 5%
inhibition [17]: 14%
inhibition [18]: 3%
inhibition [19]: 5%
inhibition [20]: 13%
